According to US10035778B2, “Meta-azacyclic amino benzoic acid derivatives as pan integrin antagonists” (Saint Louis University, priority 2015, dated 2018):

Key:
Type in all cases: in vivo
[1] = IV cassette pharmacokinetic study in female Sprague-Dawley rats (PRESCOS, LLC); conditions: plasma; female Sprague-Dawley rat, 1 mg/kg IV cassette, sampling to 8 h (PRESCOS); read-out: plasma t½ after 1 mg/kg iv bolus dose in rat (converted)
Protocol: Similar rat PK studies were conducted by PRESCOS, LLC (San Diego, Calif.) for comparison compounds C19-C28. Female Sprague-Dawley rats with an initial body weight of 195 to 220 g were used. Cassette formulations with 1 mg/kg/compound in 40/60 glycerol formal/saline were administered intravenously to three rats. The dosing volume for each animal was 5 mL/kg body weight. Blood samples were collected via a jugular vein catheter at 0.017, 0.25, 0.5, 1, 2, 4 and 8 hours post-dose into K2EDTA tubes. Animals were euthanized with CO2 at the end of the experiment. Sample processing and compound measurement by LC/MS/MS was performed by HT Laboratories (San Diego, Calif.).

[2] = IV cassette pharmacokinetic study in male Sprague-Dawley rats (Saint Louis University); conditions: plasma; male Sprague-Dawley rat, 1 mg/kg IV cassette, sampling to 24 h; read-out: plasma t½ after 1 mg/kg IV bolus dose in rat (converted)
Protocol: (§1) A minimally sufficient volume of dimethylsulfoxide (DMSO) was added to each test compound to achieve solubilization. For intravenous (IV) delivery, compounds were then formulated as solutions in glycerol formal: saline (either 20:80 or 40:60 v/v) (Sigma Chemicals, St. Louis). For oral (PO) administration, compounds were formulated with 0.5% methylcellulose. Five to six compound solutions were combined into a singled mixed solution for IV and PO cassette administration with final DMSO concentrations <0.6% or <1.2%, for the IV and PO cassettes, respectively. Analytes were detected in test samples using an LC/MS/MS (liquid chromatography/mass spectrometry) system consisting of an LC-20AD pump (Shimadzu, Kyoto, Japan), an HTC PAL autosampler (Leap technologies, Carrboro, N.C.), and a Sciex API-4000 mass spectrometer in ESI mode (AB Sciex, Foster City, Calif.). An Amour C18 reverse phase column (Analytical Sales and Services, Pompton Plains, N.J.) was used for chromatographic separation.
(§2) Pharmacokinetic (PK) studies conducted at Saint Louis University used male Sprague-Dawley rats with an initial body weight of 200 to 220 g. IV PK studies were performed with the following compounds: Examples 1-3 and 5-17 and comparison compounds C12-C18, C29, and C30. Animals were allowed free access to food and water. Rats were individually housed and connected to jugular vein catheters. Each cassette formulation was administered intravenously to two rats (1 mL/kg body weight). Each cassette formulation contained 5-6 compounds at 1 mg/kg in either 20:80 or 40/60 glycerol formal/saline (v/v). Blood was collected manually via the catheter into lithium-heparin tubes at 0.017, 0.083, 0.5, 1, 2, 4, 6 and 24 hours post-dose. Animals were euthanized with CO2 at the end of the experiment.
(§3) Internal standard was added to all samples at 200 ng/mL (final), as well as 150 μL of acetonitrile. Plasma samples (50 μL total volume) were diluted with control nave rat plasma as appropriate to bring the sample measurement into the linear dynamic range of the standard curve. The samples were capped and mixed on a multi-plate vortexer for 5 minutes and centrifuged for 5 minutes at 3200 rmp. The supernant was transferred to 96-well sample plate and capped for LC/MS/MS analysis. Compounds were optimized and monitored for their respective MRM transitions. The mobile phases consisted of 0.1% formic acid (aqueous) and 100% acetonitrile (organic) with an Amour C18 reverse phase column (2.1×30 mm, 5 micron) at a flow rate of 0.35 mL/min. The starting phase was 10% acetonitrile for the 0.9 minutes then increased to 90% acetonitrile over 0.4 minutes, and was maintained for an additional 0.2 minutes before returning to 10% acetonitrile over 0.4 minutes. The 10% acetonitrile was held for an additional 1.6 minutes. Peak areas were integrated using Analyst 1.5.1 (AB Sciex, Foster City, Calif.).

[3] = Oral (PO) cassette pharmacokinetic study in male Sprague-Dawley rats; conditions: plasma; male Sprague-Dawley rat, 2 mg/kg oral gavage cassette in 0.5% methylcellulose; read-out: AUC (0-inf) after a 2 mg/kg PO dose in rat
Protocol: as §1, §2
Oral PK studies were conducted with the following compounds: Examples 1-3 and 5-17 and comparison compounds C12, C14-16 and C29-30. The PO cassette formulations were administered via oral gavage to two rats (10 mL/kg body weight) containing 5-6 compounds per cassette. The oral dose was administered at 2 mg/kg/compound in 0.5% methylcellulose. Blood collection time points were 0.25, 0.5, 1, 2, 4, 6 and 24 hours post-dose into lithium-heparin tubes. Animals were euthanized with CO2 at the end of the experiment.
as §3

| Compound | half-life [1] [min] | half-life [2] [min] | AUC(0-inf) [3] [ng·h/mL] |
| --- | --- | --- | --- |
| CC(C)(C)c1cc(Br)cc([C@H](CC(=O)O)NC(=O)CNC(=O)c2cccc(NC3=NCCN3)c2)c1 [Example C18, reference compound] | – | 72 | – |
| CC(C)(O)c1cc(Cl)cc([C@H](CC(=O)O)NC(=O)CNC(=O)c2cc(O)cc(NC3=NCC(O)CN3)c2)c1 (stereo partly shown) [Example C16, reference compound] | – | 96 | 62 |
| CC(C)(O)c1cc(Br)cc([C@H](CC(=O)O)NC(=O)CNC(=O)c2cc(O)cc(NC3=NCC(O)CN3)c2)c1 (stereo partly shown) [Example C15, reference compound] | – | 36 | 87 |
| CC(C)(C)c1cc(Br)cc([C@H](CC(=O)O)NC(=O)CNC(=O)c2cc(O)cc(NC3=NCC(O)CN3)c2)c1O (stereo partly shown) [Example C14, reference compound] | – | 60 | 224 |
| CC(C)(C)c1cc(Br)cc([C@H](CC(=O)O)NC(=O)CNC(=O)c2cccc(NC(=N)N)c2)c1 [Example C17, reference compound] | – | 48 | – |
| CC(C)(C#N)c1cc(Br)cc([C@H](CC(=O)O)NC(=O)CNC(=O)c2cc(O)cc(NC3=NCC(O)CN3)c2)c1 (stereo partly shown) [Example C19] | 25.8 | – | – |
| CC(C)(C)c1cc(Br)c(O)c([C@H](CC(=O)O)NC(=O)CNC(=O)c2cc(O)cc(NC3=NCC(O)CN3)c2)c1 (stereo partly shown) [Example C13, reference compound] | – | 66 | – |
| CC(C)(C)c1cc(Br)cc([C@H](CC(=O)O)NC(=O)CNC(=O)c2cc(O)cc(NC3=NCC(O)CN3)c2)c1 (stereo partly shown) [Example C12, reference compound] | – | 30 | 205 |
| CC(C)(C)c1cc(C#N)cc([C@H](CC(=O)O)NC(=O)CNC(=O)c2cc(O)cc(NC3=NCC(O)CN3)c2)c1 (stereo partly shown) [Example C20] | 22.8 | – | – |

The next lines start with the values.

| half-life [1] [min] | half-life [2] [min] | AUC(0-inf) [3] [ng·h/mL] | Compound |
| --- | --- | --- | --- |
| 18 | – | – | O=C(O)C[C@H](NC(=O)CNC(=O)c1cc(O)cc(NC2=NCC(O)CN2)c1)c1cc(Cl)cc(C2(CF)CCOCC2)c1 (stereo partly shown) [Example C22] |
| 12.6 | – | – | CC(O)(c1cc([C@H](CC(=O)O)NC(=O)CNC(=O)c2cc(O)cc(NC3=NCC(O)CN3)c2)cc(C(F)(F)F)c1)C(F)(F)F (stereo partly shown) [Example C27] |
| 13.8 | – | – | N#CC1(c2cc(Cl)cc([C@H](CC(=O)O)NC(=O)CNC(=O)c3cc(O)cc(NC4=NCC(O)CN4)c3)c2)CCC1 (stereo partly shown) [Example C25] |
| – | < 4.8 | < 1 | O=C(O)C[C@H](NC(=O)CNC(=O)c1cc(O)cc(NC2=NCC(O)CN2)c1)c1ccccc1 (stereo partly shown) [Example C29, reference compound] |
| 15 | – | – | N#CC1(c2cc(Cl)cc([C@H](CC(=O)O)NC(=O)CNC(=O)c3cc(O)cc(NC4=NCC(O)CN4)c3)c2)CCOCC1 (stereo partly shown) [Example C26] |
| – | 96 | < 1 | NC(=O)c1cc(Cl)cc([C@H](CC(=O)O)NC(=O)CNC(=O)c2cc(O)cc(NC3=NCC(O)CN3)c2)c1 (stereo partly shown) [Example C30, reference compound] |
| 12.6 | – | – | CC(C)(c1cc(Cl)cc([C@H](CC(=O)O)NC(=O)CNC(=O)c2cc(O)cc(NC3=NCC(O)CN3)c2)c1)C(F)(F)F (stereo partly shown) [Example C23] |
| 16.8 | – | – | CC(O)(c1cc(Cl)cc([C@H](CC(=O)O)NC(=O)CNC(=O)c2cc(O)cc(NC3=NCC(O)CN3)c2)c1)C(F)(F)F (stereo partly shown) [Example C24] |
| 18 | – | – | O=C(O)C[C@H](NC(=O)CNC(=O)c1cc(O)cc(NC2=NCC(O)CN2)c1)c1cc(Br)cc(C2(C(F)F)CC2)c1 (stereo partly shown) [Example C28] |
| 90 | – | – | CC(C)(O)c1cc([C@H](CC(=O)O)NC(=O)CNC(=O)c2cc(O)cc(NC3=NCC(O)CN3)c2)cc(C(F)(F)F)c1 (stereo partly shown) [Example C21] |
